The source of these data is ChEMBL document CHEMBL1909046, “DrugMatrix in vitro pharmacology data”.

In experiment [1] the target is T1, Cathepsin G (Homo sapiens, UniProt P08311).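 Also: inhibition of Cathepsin G enzyme activity, tested on an AMC-conjugated peptide substrate; in other assays of this panel Not Active means under 50% inhibition at 10 µM.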
T1 sequence (P08311 whole entry): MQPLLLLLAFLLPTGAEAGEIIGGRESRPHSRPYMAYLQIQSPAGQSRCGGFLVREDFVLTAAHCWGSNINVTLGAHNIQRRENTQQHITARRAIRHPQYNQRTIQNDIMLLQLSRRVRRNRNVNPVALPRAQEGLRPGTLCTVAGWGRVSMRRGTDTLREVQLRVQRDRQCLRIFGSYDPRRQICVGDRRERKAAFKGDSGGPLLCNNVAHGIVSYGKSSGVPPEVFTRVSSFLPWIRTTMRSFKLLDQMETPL
The experiment is classed as tissue-based. To be noted: neutrophil.

Experiment [2] concerns the target T2, C-X-C chemokine receptor type 2 (Homo sapiens, UniProt P25025). Also: in other assays of this panel Not Active means under 50% inhibition at 10 µM.
T2 sequence (P25025 whole entry): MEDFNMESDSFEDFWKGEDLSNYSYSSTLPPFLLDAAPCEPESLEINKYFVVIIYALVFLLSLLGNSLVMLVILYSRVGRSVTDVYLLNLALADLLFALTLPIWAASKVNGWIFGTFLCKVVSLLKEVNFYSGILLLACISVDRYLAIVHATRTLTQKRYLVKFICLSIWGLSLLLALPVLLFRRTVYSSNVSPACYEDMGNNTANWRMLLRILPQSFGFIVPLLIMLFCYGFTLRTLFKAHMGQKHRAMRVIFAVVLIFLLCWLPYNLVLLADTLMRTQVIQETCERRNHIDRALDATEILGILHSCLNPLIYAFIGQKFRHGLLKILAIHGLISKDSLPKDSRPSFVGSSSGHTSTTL
The experiment is classed as cell membranes, Membrane. To be noted: cho-k1.

The target of experiment [3] is Nitric oxide synthase 1 (Rattus norvegicus, UniProt P29476). Type of experiment: tissue-based, Cerebellum. Also: in other assays of this panel Not Active means under 50% inhibition at 10 µM.
Nitric oxide synthase 1, sequence (P29476 whole entry): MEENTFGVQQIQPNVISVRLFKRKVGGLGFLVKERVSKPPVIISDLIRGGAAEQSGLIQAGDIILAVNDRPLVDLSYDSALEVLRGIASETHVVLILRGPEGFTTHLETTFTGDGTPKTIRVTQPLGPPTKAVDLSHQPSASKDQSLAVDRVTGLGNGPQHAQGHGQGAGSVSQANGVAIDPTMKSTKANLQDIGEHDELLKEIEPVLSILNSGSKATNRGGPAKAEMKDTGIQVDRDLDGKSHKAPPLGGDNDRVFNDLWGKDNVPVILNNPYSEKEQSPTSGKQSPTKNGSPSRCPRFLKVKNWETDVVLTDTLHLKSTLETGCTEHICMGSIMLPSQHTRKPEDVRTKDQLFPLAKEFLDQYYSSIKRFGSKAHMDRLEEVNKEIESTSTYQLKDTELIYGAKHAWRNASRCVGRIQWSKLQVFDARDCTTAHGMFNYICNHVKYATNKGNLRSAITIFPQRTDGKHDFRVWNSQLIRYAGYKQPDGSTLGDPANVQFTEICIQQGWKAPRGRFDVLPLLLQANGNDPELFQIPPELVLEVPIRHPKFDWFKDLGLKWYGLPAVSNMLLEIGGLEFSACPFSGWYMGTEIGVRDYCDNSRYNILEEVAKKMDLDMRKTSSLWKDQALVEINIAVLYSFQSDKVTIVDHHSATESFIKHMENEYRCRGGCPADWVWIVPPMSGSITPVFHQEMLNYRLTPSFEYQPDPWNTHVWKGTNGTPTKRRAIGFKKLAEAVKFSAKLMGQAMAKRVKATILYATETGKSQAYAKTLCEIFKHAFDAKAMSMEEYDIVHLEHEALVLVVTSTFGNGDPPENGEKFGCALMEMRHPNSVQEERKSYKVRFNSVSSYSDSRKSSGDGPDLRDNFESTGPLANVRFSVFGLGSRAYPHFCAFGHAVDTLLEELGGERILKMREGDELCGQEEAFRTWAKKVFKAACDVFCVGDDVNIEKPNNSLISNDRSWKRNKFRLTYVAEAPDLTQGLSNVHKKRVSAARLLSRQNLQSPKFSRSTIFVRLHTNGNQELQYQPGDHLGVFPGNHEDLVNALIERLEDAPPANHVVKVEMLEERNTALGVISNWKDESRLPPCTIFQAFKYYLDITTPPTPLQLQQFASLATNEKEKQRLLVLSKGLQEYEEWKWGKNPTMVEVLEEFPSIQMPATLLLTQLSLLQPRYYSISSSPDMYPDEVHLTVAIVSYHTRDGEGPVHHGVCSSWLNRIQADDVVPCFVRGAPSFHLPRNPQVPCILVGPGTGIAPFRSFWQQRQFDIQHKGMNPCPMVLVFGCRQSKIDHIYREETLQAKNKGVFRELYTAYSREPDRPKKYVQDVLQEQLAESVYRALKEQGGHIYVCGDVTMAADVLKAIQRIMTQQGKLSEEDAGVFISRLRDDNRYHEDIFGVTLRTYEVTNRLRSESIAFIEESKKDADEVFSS
Experiment [4] is described as follows: DRUGMATRIX: Phorbol Ester radioligand binding (ligand: [3H] PDBu). The experiment is classed as cell membranes, Mus musculus, ICR, Brain, Membrane. To be noted: Not Active = under 50% inhibition at 10 µM.
Experiment [5] deals with T3, Alpha-1D adrenergic receptor (Homo sapiens, UniProt P25100).
T3 sequence (P25100 whole entry): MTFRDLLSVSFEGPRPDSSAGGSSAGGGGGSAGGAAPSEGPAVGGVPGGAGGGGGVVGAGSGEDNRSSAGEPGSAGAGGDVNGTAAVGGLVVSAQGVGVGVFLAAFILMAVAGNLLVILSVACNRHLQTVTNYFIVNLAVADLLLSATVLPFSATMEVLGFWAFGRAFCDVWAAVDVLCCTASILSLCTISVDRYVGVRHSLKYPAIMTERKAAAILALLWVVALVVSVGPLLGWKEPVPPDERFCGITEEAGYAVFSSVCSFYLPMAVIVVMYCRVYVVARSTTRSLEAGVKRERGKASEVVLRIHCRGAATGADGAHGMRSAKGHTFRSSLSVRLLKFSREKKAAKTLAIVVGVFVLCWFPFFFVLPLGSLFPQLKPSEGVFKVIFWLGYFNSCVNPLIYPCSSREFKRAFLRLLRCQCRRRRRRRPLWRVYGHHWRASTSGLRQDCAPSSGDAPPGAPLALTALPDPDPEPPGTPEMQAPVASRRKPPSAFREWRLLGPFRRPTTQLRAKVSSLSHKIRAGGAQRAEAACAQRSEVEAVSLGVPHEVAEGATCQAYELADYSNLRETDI
The experiment is classed as cell membranes, HEK293, Membrane.

A short description of experiment [6]: DRUGMATRIX: beta-Lactamase enzyme inhibition (substrate: Nitrocefin). The arrangement: species or system Bacillus cereus. As to conditions: Not Active = under 50% inhibition at 10 µM.
Experiment [7] addresses Sodium-dependent noradrenaline transporter (Homo sapiens, UniProt P23975). Briefly: DRUGMATRIX: Norepinephrine Transporter radioligand binding (ligand: [125I] RTI-55). Type of experiment: cell membranes, MDCK, Membrane. To be noted: mdck; Not Active = under 50% inhibition at 10 µM.

The structures appear in SMILES notation.

Sodium-dependent noradrenaline transporter, sequence (P23975 whole entry): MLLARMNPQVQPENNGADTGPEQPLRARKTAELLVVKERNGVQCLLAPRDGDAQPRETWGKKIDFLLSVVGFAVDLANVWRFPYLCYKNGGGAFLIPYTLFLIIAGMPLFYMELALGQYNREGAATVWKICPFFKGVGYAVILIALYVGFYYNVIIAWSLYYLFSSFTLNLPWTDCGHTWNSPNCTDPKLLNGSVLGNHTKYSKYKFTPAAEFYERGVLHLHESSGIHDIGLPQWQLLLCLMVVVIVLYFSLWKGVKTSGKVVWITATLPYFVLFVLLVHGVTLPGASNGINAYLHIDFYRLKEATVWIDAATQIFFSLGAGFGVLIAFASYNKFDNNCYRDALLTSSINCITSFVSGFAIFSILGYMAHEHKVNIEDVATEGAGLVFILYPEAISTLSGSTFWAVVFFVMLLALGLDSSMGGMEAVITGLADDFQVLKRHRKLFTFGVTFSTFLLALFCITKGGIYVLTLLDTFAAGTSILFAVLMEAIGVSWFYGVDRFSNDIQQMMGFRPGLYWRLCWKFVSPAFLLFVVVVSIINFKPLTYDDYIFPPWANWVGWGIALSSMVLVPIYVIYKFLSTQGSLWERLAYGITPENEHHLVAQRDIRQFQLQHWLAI

For orientation: IC50 means the concentration needed to halve the response being measured. In general, Ki refers to a measure of affinity in units of concentration, obtained from inhibition or displacement. With `CC(C)c1c(C(=O)Nc2ccccc2)c(-c2ccccc2)c(-c2ccc(F)cc2)n1CC[C@@H](O)C[C@@H](O)CC(=O)O` [ATORVASTATIN], the IC50 result in experiment [1], in experiment [2], in experiment [3], in experiment [4], in experiment [5] (hek293) and in experiment [6] was “Not Active” each time. Besides, the IC50 entry in experiment [7] is “Not Active”. For the same compound, the Ki entry in experiment [4] and in experiment [6] was “Not Active” in each case.
As to `CC(=O)OC[C@H]1O[C@@H](n2ncc(=O)[nH]c2=O)[C@H](OC(C)=O)[C@@H]1OC(C)=O` [AZARIBINE], the IC50 result in experiment [1], in experiment [2], in experiment [3], in experiment [4], in experiment [5] (hek293) and in experiment [6] was “Not Active” throughout. The IC50 entry in experiment [7] is “Not Active”. Also, the Ki result in experiment [4] and in experiment [6] was “Not Active” each time.
As to `C[C@H]1[C@H](NC(=O)/C(=N\OC(C)(C)C(=O)O)c2csc(N)n2)C(=O)N1S(=O)(=O)O` [AZTREONAM], the IC50 result in experiment [1], in experiment [2], in experiment [3], in experiment [4], in experiment [5] (hek293) and in experiment [6] was “Not Active” throughout. Further, the IC50 entry in experiment [7] was “Not Active”. Also, the Ki result in experiment [4] and in experiment [6] was “Not Active” throughout.
`O=C(O)CCNC(=O)c1ccc(/N=N/c2ccc(O)c(C(=O)O)c2)cc1` [BALSALAZIDE]: the IC50 result in experiment [1], in experiment [2], in experiment [3], in experiment [4], in experiment [5] (hek293) and in experiment [6] was “Not Active” throughout. Moreover, in experiment [7], the IC50 entry is recorded as “Not Active”. The Ki entry in experiment [4] and in experiment [6] was “Not Active” throughout.
As for `COc1cc(OC)c(C(=O)CCCN2CCCC2)c(OC)c1` [BUFLOMEDIL], the IC50 result in experiment [1], in experiment [2], in experiment [3], in experiment [4], in experiment [5] (hek293) and in experiment [6] was “Not Active” each time. In addition, the IC50 result in experiment [7] was “Not Active”. For the same compound, the inhibition constant (Ki) result in experiment [4] and in experiment [6] was “Not Active” each time.
In the case of `Cn1c(=O)c2c(ncn2C)n(C)c1=O` [CAFFEINE], the IC50 entry in experiment [1], in experiment [2], in experiment [3], in experiment [4], in experiment [5] (hek293) and in experiment [6] was “Not Active” each time. Also, the IC50 entry in experiment [7] is reported as “Not Active”. For the same compound, the Ki entry in experiment [4] and in experiment [6] was “Not Active” each time.
As to `ClC(Cl)(Cl)Cl` [CARBON TETRACHLORIDE], the IC50 result in experiment [1], in experiment [2], in experiment [3], in experiment [4], in experiment [5] (hek293) and in experiment [6] was “Not Active” throughout. Moreover, the IC50 result in experiment [7] is listed as “Not Active”. For the same compound, the Ki entry in experiment [4] and in experiment [6] was “Not Active” throughout.
`CO/N=C(\C(=O)N[C@@H]1C(=O)N2C(C(=O)O)=C(COC(C)=O)CS[C@H]12)c1csc(N)n1` [CEFOTAXIME]: the IC50 entry in experiment [1], in experiment [2], in experiment [3], in experiment [4], in experiment [5] (hek293) and in experiment [6] was “Not Active” throughout. In addition, the IC50 entry in experiment [7] was “Not Active”. Moreover, the Ki result in experiment [4] and in experiment [6] was “Not Active” each time.
As for `CNC1=Nc2ccc(Cl)cc2C(c2ccccc2)=[N+]([O-])C1` [CHLORDIAZEPOXIDE], the IC50 result in experiment [1], in experiment [2], in experiment [3], in experiment [4], in experiment [5] (hek293) and in experiment [6] was “Not Active” in each case. In experiment [7], the half-inhibitory concentration (IC50) result is “Not Active”. In addition, the Ki result in experiment [4] and in experiment [6] was “Not Active” throughout.
In the case of `Cc1cc(O)cc(C)c1Cl` [CHLOROXYLENOL], the IC50 entry in experiment [1], in experiment [2], in experiment [3], in experiment [4], in experiment [5] (hek293) and in experiment [6] was “Not Active” each time. Further, the IC50 result in experiment [7] is reported as “Not Active”. Also, the Ki result in experiment [4] and in experiment [6] was “Not Active” throughout.
With `CCCNC(=O)NS(=O)(=O)c1ccc(Cl)cc1` [CHLORPROPAMIDE], the IC50 entry in experiment [1], in experiment [2], in experiment [3], in experiment [4], in experiment [5] (hek293) and in experiment [6] was “Not Active” in each case. For the same compound, the IC50 entry in experiment [7] is reported as “Not Active”. The Ki result in experiment [4] and in experiment [6] was “Not Active” each time.
On to `NS(=O)(=O)c1cc(C2(O)NC(=O)c3ccccc32)ccc1Cl` (stereo not drawn) [CHLORTHALIDONE], for which the IC50 entry in experiment [1], in experiment [2], in experiment [3], in experiment [4], in experiment [5] (hek293) and in experiment [6] was “Not Active” in each case. Also, the IC50 entry in experiment [7] was “Not Active”. In addition, the Ki result in experiment [4] and in experiment [6] was “Not Active” throughout.
Consider `O=C(O)CC(O)(CC(=O)O)C(=O)O` [CITRIC ACID], for which the IC50 result in experiment [1], in experiment [2], in experiment [3], in experiment [4], in experiment [5] (hek293) and in experiment [6] was “Not Active” each time. Also, the IC50 result in experiment [7] was “Not Active”. Also, the Ki result in experiment [4] and in experiment [6] was “Not Active” in each case.
As for `CC(C)NCC(O)c1ccccc1Cl` (stereo not drawn) [CLORPRENALINE], the IC50 entry in experiment [1], in experiment [2], in experiment [3], in experiment [4], in experiment [5] (hek293) and in experiment [6] was “Not Active” throughout. Moreover, the IC50 result in experiment [7] was “Not Active”. For the same compound, the Ki result in experiment [4] and in experiment [6] was “Not Active” in each case.
As to `CN1CCN(C(c2ccccc2)c2ccccc2)CC1` [CYCLIZINE], the IC50 result in experiment [1] was “Not Active”; in experiment [2], “Not Active”; in experiment [3], “Not Active”; in experiment [4], “Not Active”; in experiment [5] (read-out: IC50), 1210 nM; in experiment [6], “Not Active”. In experiment [7], the IC50 entry was “Not Active”. Besides, the Ki entry is “Not Active” in experiment [4], 597 nM in experiment [5] (read-out: Ki) and “Not Active” in experiment [6].
Regarding `CN1C[C@@H]2C[C@H]1CN2c1cc2c(cc1F)c(=O)c(C(=O)O)cn2C1CC1` [DANOFLOXACIN], the IC50 entry in experiment [1], in experiment [2], in experiment [3], in experiment [4], in experiment [5] (hek293) and in experiment [6] was “Not Active” throughout. In addition, the IC50 result in experiment [7] is listed as “Not Active”. The inhibition constant Ki entry in experiment [4] and in experiment [6] was “Not Active” each time.
On to `COc1cccc2c1C(=O)c1c(O)c3c(c(O)c1C2=O)C[C@@](O)(C(C)=O)C[C@@H]3O[C@H]1C[C@H](N)[C@H](O)[C@H](C)O1` [DAUNORUBICIN], for which the IC50 entry in experiment [1], in experiment [2], in experiment [3], in experiment [4], in experiment [5] (hek293) and in experiment [6] was “Not Active” throughout. For the same compound, the IC50 result in experiment [7] is listed as “Not Active”. In addition, the Ki entry in experiment [4] and in experiment [6] was “Not Active” each time.
With `O=C(O)c1cc(-c2ccc(F)cc2F)ccc1O` [DIFLUNISAL], the IC50 result in experiment [1], in experiment [2], in experiment [3], in experiment [4], in experiment [5] (hek293) and in experiment [6] was “Not Active” each time. In addition, in experiment [7], the IC50 entry was “Not Active”. Moreover, the Ki entry in experiment [4] and in experiment [6] was “Not Active” throughout.
